Data published in paper PMC5429621 (Scientific Reports, 2017).
Numbering of substitutions follows the chain as printed.

Columns and labels:
[1] = target: T1, hP2X7-2Nβ receptor (Homo sapiens, UniProt Q99572, I21V/M24R/N16P/N25R/Q22R/R20V/S23N/T19I/Y26L); experiment: two-electrode voltage clamp, Xenopus oocytes; format: cell-based; details: P2X7-2Nβ
T1 construct: expressed in transfected cells; host or cells: Xenopus laevis oocytes (cRNA injected)
T1 sequence (Q99572 1-595 N16P/T19I/R20V/I21V/Q22R/S23N/M24R/N25R/Y26L): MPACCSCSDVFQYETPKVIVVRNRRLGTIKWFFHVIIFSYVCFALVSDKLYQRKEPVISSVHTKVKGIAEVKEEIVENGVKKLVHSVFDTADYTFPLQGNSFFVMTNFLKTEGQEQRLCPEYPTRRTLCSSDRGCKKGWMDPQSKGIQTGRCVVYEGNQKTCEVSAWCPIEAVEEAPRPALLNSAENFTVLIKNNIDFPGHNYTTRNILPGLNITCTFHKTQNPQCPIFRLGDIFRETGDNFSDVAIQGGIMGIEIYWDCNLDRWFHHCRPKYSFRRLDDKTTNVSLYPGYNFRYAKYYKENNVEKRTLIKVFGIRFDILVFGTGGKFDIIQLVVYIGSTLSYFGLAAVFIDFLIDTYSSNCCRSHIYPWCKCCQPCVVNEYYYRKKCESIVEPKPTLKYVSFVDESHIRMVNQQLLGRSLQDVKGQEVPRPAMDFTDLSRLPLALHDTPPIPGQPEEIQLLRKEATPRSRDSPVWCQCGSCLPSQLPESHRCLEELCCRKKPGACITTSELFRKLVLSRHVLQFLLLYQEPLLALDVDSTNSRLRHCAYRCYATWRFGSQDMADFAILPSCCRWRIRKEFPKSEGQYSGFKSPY
Experimental: (§1) P2XR constructs were transcribed to produce sense-strand cRNA (mMessage mMachine, Ambion, Austin, TX). Manually defoliculated stage V Xenopus laevis oocytes were injected with 50 nl (50 ng) of cRNA using an Inject + Matic microinjector (J.A. Gaby, InjectMatic, Geneva, Switzerland) and stored at 16 °C in ND96 buffer (in mM, NaCl 96, KCl 2, CaCl2 1.8, MgCl2 1, sodium pyruvate 5, HEPES 5 (pH 7.6) supplemented with 50 µg/ml gentamycin and 50 µg/ml tetracycline). For electrophysiological recordings (3–7 days post-injection) oocytes were bathed in divalent free ND96 buffer (in mM, NaCl 96, KCl 2, sodium pyruvate 5, HEPES 5 and 0.1 flufenamic acid, pH 7.6).
(§2) ATP (sodium salt, Sigma) was applied via a U-tube perfusion system for 3 s at 3–5 minute intervals to allow reproducible responses to be recorded. […] To standardize for any change in ATP sensitivity at mutant receptors antagonists were co-applied with an EC90 concentration of ATP.
(§3) Concentration response curves were normalized to the maximal response and fitted with the Hill equation (variable slope) with GraphPad Prism 6 (Graphpad software, San Diego, CA). […] Individual concentration response curves were generated for individual experiments and statistical analysis was carried out on the data generated. In the figures the inhibition curves are fitted to the mean normalized data. Any significant differences were calculated by one-way analysis of variance, followed by Bonferroni’s test (using GraphPad Prism 6). Data are shown as mean ± SEM.

[2] = target: T2, hP2X7-2Nβ/P2X1 chimera 81–94 (Homo sapiens, UniProt Q99572, F88W/H85P/I21V/K81P/K82G/M24R/N16P/N25R/Q22R/R20V/S23N/S86Q/T19I/T90V/T94V/V84G/Y26L); experiment: two-electrode voltage clamp, Xenopus oocytes; format: cell-based; details: 81–94 chimera
T2 construct: expressed in transfected cells; host or cells: Xenopus laevis oocytes (cRNA injected)
T2 sequence (Q99572 1-595 N16P/T19I/R20V/I21V/Q22R/S23N/M24R/N25R/Y26L/K81P/K82G/V84G/H85P/S86Q/F88W/T90V/T94V): T1 sequence (Q99572 1-595 N16P/T19I/R20V/I21V/Q22R/S23N/M24R/N25R/Y26L) with K81P, K82G, V84G, H85P, S86Q, F88W, T90V, T94V
Text: The hP2X1R was a gift from Dr Lin-Hua Jiang (University of Leeds, UK) and the hP2X1R cDNA has been described previously. Chimeras were generated by megaprimer-mediated domain swapping. In addition to chimeras, point mutations, deletions and insertions were made using the QuikChange (Stratagene) or Q5 (New England Bioscience) mutagenesis kits. The production of the correct mutations and absence of coding errors was verified by DNA sequencing (Automated ABI Sequencing Service, University of Leicester, UK).
as §1, §2, §3

SMILES | Hill slope of AZ10606120 inhibition ([1]; EC90 ATP) | % Inhibition with 30 nm AZ10606120 ([1]; response to EC90 ATP) | peak current to ATP, % of the control response ([2]; in the presence of 3 µM AZ10606120) | Peak amplitude ([1]; maximal ATP) | Peak amplitude ([2]; maximal ATP)
Cl.Cl.O=C(CC12CC3CC(CC(C3)C1)C2)Nc1cccc2nc(NCCNCCO)ccc12 [AZ10606120, N-[2-[[2-[(2-Hydroxyethyl)amino]ethyl]amino]-5-quinolinyl]-2-tricyclo[3.3.1.13,7]dec-1-ylacetamide dihydrochloride] | 1.7 ± 0.24 | ~ 70% | 53.6 ± 2.6% |  | 
Nc1ncnc2c1ncn2[C@@H]1O[C@H](COP(=O)(O)OP(=O)(O)OP(=O)(O)O)[C@@H](O)[C@H]1O [ATP] |  |  |  | 2.69 ± 0.19 μA | 0.76 ± 0.13 μA
